Key:
Assay type in all cases: cell-based, mouse
ES cell-derived NP cells = assay: siRNA knock down of Lmx1a and Lmx1b in ES cell-derived NP and ND stage cells
Protocol: For siRNA transfection, NP stage cells were treated with 50 ng/ml FGF8 and 100 ng/ml SHH for 4 days to induce/proliferate mDA NPs, followed by transfection with siRNA using the Nucleofector (Amaxa, Walkersville, Md.) mouse stem cell kit with the program A-033 according to the manufacturer's instruction. Per transfection, 5×10^6 NP cells were treated with 480 pmol of siRNA, diluted in 10 ml of N3bFGF media (or N3 media for ND stage transfection) and plated in PLO/FN-coated multiwell plate, resulting in a final siRNA concentration of 48 nM. For ND stage transfection, cells were further differentiated in N3 media for 2 days before transfection. Multiple Stealth siRNAs were purchased from Invitrogen (Carlsbad, Calif.), screened for gene silencing efficiency by cotransfection with Lmx1a or Lmx1b-expressing plasmids and only siRNAs showing efficient gene silencing (>95%) was used for the experiments. The sequences of the siRNAs are as follows: the Lmx1a sense strand […] (SEQ ID NO: 1); the Lmx1a antisense strand […] (SEQ ID NO: 2); the Lmx1b sense strand […] (SEQ ID NO: 3); the Lmx1b antisense strand […] (SEQ ID NO: 4). Thirty hours after transfection, cells were fixed for immunocytochemistry or harvested for RNA preparation.
To further study the redundant function between Lmx1a and Lmx1b, experiments were carried out to knock down these genes using gene-specific siRNA approach. ES cell-derived NP cells were treated with SHH and FGF8 for 4 days to induce/proliferate mDA NPs, and then transfected with control siRNA, Lmx1a siRNA, Lmx1b siRNA or both Lmx1a/1b siRNAs using Nucleofector (Amaxa) and analyzed after 30 hours. […] This insignificant effect is in contrast with the robust induction effect observed in overexpression experiment (FIG. 5A). This can be explained by incomplete knockdown by siRNA and/or nonphysiological overexpression effect caused by retroviral transduction. […] Since Pitx3^+ cells were not yet detectable at this NP stage, the gene knockdown experiment was repeated at ND stage cells.

SHH signaling [1] = assay: Acute treatment of ES-derived NP cells with SHH or cyclopamine, qPCR; conditions: 6 hours
Protocol: For all other samples, total RNA was prepared using TriReagent (Sigma, St. Louis, Mo.) followed by further purification using RNeasy mini kit (Qiagen, Valencia, Calif.). For RT-PCR analysis, 2 ? g of RNA were transcribed into cDNA with the SuperScript™ II RT (Invitrogen, Carlsbad, Calif.) and oligo (dT) primers. For quantitative analysis of the expression level of mRNAs, real-time PCR analyses using SYBR green I were performed using a DNA engine Opticon™ (MJ Research, Waltham, Mass.). To reduce non-specific signals, oligonucleotides amplifying small amplicons were designed using the MacVector software (Oxford Molecular Ltd.: primers sequences are available upon request). Amplifications were performed in 25 μl containing 0.5 μM of each primer,
0.5×SYBR Green I (Molecular Probes, Oreg.), and 2 μl of 5 fold diluted cDNA. Fifty PCR cycles were performed with a temperature profile consisting of 95° C. for 30 sec, 55° C. for 30 sec, 72° C. for 30 sec, and 79° C. for 5 sec. The dissociation curve of each PCR product was determined to ensure that the observed fluorescent signals were only from specific PCR products. After each PCR cycle, the fluorescent signals were detected at 79° C. to melt primer dimers (Tms of all primer dimers used in this study were <76° C.). A standard curve was constructed using plasmid DNAs containing the GAPDH gene (from 10^2 to 10^8 molecules). The fluorescent signals from specific PCR products were normalized against that of the β-actin gene, and then relative values were calculated by setting the normalized value of control as 1 (or 100 in some cases). All reactions were repeated using more than three independent samples.
(§1) It was previously shown that SHH treatment could ventralize chick intermediate midbrain explants, accompanied by induction of Lmx1a and other ventral midbrain phenotype (Andersson et al., 2006b). […] ES-derived NP cells were treated with 500 ng/ml SHH or 1 μM cyclopamine for 6 hours and analyzed by qPCR.

SHH signaling [2] = assay: Wnt1 induction of Lmx1a in the presence of the SHH signaling inhibitor cyclopamine, qPCR at NP stage; conditions: Wnt1-retrovirus transduced NP cells, 1 mM cyclopamine for 3 days
Protocol: FIG. 10A-B show interaction between SHH and other factors. […] J1 ES-derived NP cells were transduced with empty- or Wnt1-retrovirus and cultured in the absence or presence of […] cyclopamine for 3 days, and analyzed by qPCR at NP stage. […] NP stage cells were treated with 500 ng/ml of SHH or […] Cyclopamine for 6 hours and analyzed by qPCR.
as §1

[3] = ND stage, 30 hrs after transfection
[4] = NP stage, 30 hours after transfection
[5] = NP stage, 30 hours after transfection, 48 nM siRNA
[6] = NP cells, 500 ng/ml SHH or 1 μM cyclopamine

| Compound | mRNA level of Lmx1b (ES cell-derived NP cells; [3]) | Nurr1 gene expression (ES cell-derived NP cells; [4]) | Wnt1 gene expression (ES cell-derived NP cells; [4]) | mRNA level of Lmx1b (ES cell-derived NP cells; [5]) | mRNA level of Lmx1a (ES cell-derived NP cells; [3]) | mRNA level of Lmx1a (ES cell-derived NP cells; [5]) | Lmx1a mRNA levels (SHH signaling [1]; [6]) | Nurr1 mRNA levels (SHH signaling [1]; [6]) | TH mRNA levels (SHH signaling [1]; [6]) | mRNA level of Gli1 (SHH signaling [1]; NP stage cells, 500 ng/ml SHH or μM Cyclopamine) | induction of Lmx1a gene expression by Wnt1 (SHH signaling [2]) |
| --- | --- | --- | --- | --- | --- | --- | --- | --- | --- | --- | --- |
| Lmx1b siRNA: Stealth siRNA, sense GGAACGACUCCAUCUUCCACGAUAU (SEQ ID NO: 3), antisense SEQ ID NO: 4 (antisense AUAUCGUGGAAGAUGGAGUCGUUCC; Stealth modification, further chemistry not given here) | significantly reduced | did not have significant effect | did not have significant effect | significantly reduced |  |  |  |  |  |  |  |
| Lmx1a siRNA: Stealth siRNA, sense GAGGAGAGCAUUCAAGGCCUCGUUU (SEQ ID NO: 1), antisense SEQ ID NO: 2 (antisense AAACGAGGCCUUGAAUGCUCUCCUC; Stealth modification, further chemistry not given here) |  | did not have significant effect | did not have significant effect |  | significantly reduced | significantly reduced |  |  |  |  |  |
| CC1=C2C[C@H]3[C@@H](CC=C4C[C@@H](O)CC[C@@]43C)[C@@H]2CC[C@]12O[C@@H]1C[C@H](C)CN[C@H]1[C@H]2C [cyclopamine] |  |  |  |  |  |  | no significant changes | no significant changes | no significant changes | reduced | not affected |
